We go through three compounds from patent publication US5162333A, “Aminodiesters of rapamycin” (American Home Products Corporation, priority 1991, dated 1992).

Structures are written as SMILES.

The subject of assay [1] is pinch skin graft from male DBA/2 donors transplanted to male BALB/c recipients. Kind of assay: survival time of pinch skin graft. The conditions noted are these: intraperitoneally; days to rejection. The assay is classed as in vivo, mouse (DBA/2 donors. The procedure:
(§1) Immunosuppressive activity was evaluated in an in vitro standard pharmacological test procedure to measure lymphocyte proliferation (LAF) and in two in vivo standard pharmacological test procedures. The first in vivo procedure was a popliteal lymph node (PLN) test procedure which measured the effect of compounds of this invention on a mixed lymphocyte reaction and the second in vivo procedure evaluated the survival time of a pinch skin graft.
The second in vivo test procedure is designed to determine the survival time of pinch skin graft from male DBA/2 donors transplanted to male BALB/c recipients. The method is adapted from Billingham R. E. and Medawar P. B., J. Exp. Biol. 28:385-402, (1951). Briefly, a pinch skin graft from the donor is grafted on the dorsum of the recipient as a homograft, and an autograft is used as control in the same region. […] Untreated recipients serve as rejection control. The graft is monitored daily and observations are recorded until the graft becomes dry and forms a blackened scab. This is considered as the rejection day. The mean graft survival time (number of days±S.D.) of the drug treatment group is compared with the control group.

Assay [2] deals with thymocyte proliferation (cells from the thymus of normal BALB/c mice, PHA and IL-1). Kind of assay: comitogen-induced thymocyte proliferation procedure (LAF). In kind it is cell-based. The conditions noted are these: for LAF (ratio): calculation described in b29 (formula not shown). The procedure:
as §1
Briefly, cells from the thymus of normal BALB/c mice are cultured for 72 hours with PHA and IL-1 and pulsed with tritiated thymidine during the last six hours. […] Cells are harvested and incorporated; radioactivity is determined. Inhibition of lymphoproliferation is assessed in percent change in counts per minute from non-drug treated controls. The results are expressed by the following ratio, or as the IC50, expressed in nM. [formula]

Assay [3] relates to mixed lymphocyte reaction in popliteal lymph node. In words: popliteal lymph node (PLN) test procedure, in vivo mixed lymphocyte reaction. More on the design: species or system mouse (BALB/c donors, C3H mice recipients). The conditions noted are these: for PLN (ratio): p.o. daily Day 0 to Day 4, calculation described in b30 (formula not shown). On the procedure:
as §1
A mixed lymphocyte reaction (MLR) occurs when lymphoid cells from genetically distinct animals are combined in tissue culture. Each stimulates the other to undergo blast transformation which results in increased DNA synthesis that can be quantified by the incorporation of tritiated thymidine. Since stimulating a MLR is a function of disparity at Major Histocompatibility antigens, an in vivo popliteal lymph node (PLN) test procedure closely correlates to host vs. graft disease. Briefly, irradiated spleen cells from BALB/c donors are injected into the right hind foot pad of recipient C3H mice. The drug is given daily, p.o. from Day 0 to Day 4. On Day 3 and Day 4, tritiated thymidine is given i.p., b.i.d. On Day 5, the hind popliteal lymph nodes are removed and dissolved, and radioactivity counted. The corresponding left PLN serves as the control for the PLN from the injected hind foot. Percent suppression is calculated using the non-drug treated animals as allogenic control. […] Results are expressed by the following ratio: [formula]

Assay [4] concerns Candida albicans. The conditions noted are these: particularly against Candida albicans, both in vitro and in vivo; cited from earlier work.
Assay [5] relates to experimental allergic encephalomyelitis model, a model for multiple sclerosis. The conditions noted are these: in vivo; cited from earlier work.
Assay [6] relates to organ grafts in histoincompatible rodents. The conditions noted are these: cited from earlier work.
In assay [7] the test system is formation of IgE-like antibodies. The conditions noted are these: cited from earlier work.

In the case of `CO[C@H]1C[C@@H]2CC[C@@H](C)[C@@](O)(O2)C(=O)C(=O)N2CCCC[C@H]2C(=O)O[C@H]([C@H](C)C[C@@H]2CC[C@@H](OC(=O)CC[C@H](NC(=O)OCc3ccccc3)C(=O)O[C@@H]3CC[C@@H](C[C@@H](C)[C@@H]4CC(=O)[C@H](C)/C=C(\C)[C@@H](O)[C@@H](OC)C(=O)[C@H](C)C[C@H](C)/C=C/C=C/C=C(\C)[C@@H](OC)C[C@@H]5CC[C@@H](C)[C@@](O)(O5)C(=O)C(=O)N5CCCC[C@H]5C(=O)O4)C[C@H]3OC)[C@H](OC)C2)CC(=O)[C@H](C)/C=C(\C)[C@@H](O)[C@@H](OC)C(=O)[C@H](C)C[C@H](C)/C=C/C=C/C=C/1C` [Example 1, Rapamycin-42,42'-diester with N-[(phenylmethoxy)carbonyl]-L-glutamic acid], the “Skin Graft (mean graft survival time)” value in assay [1] was 10.2 ± 0.4 days ± SD. Further, in assay [2], the “LAF (ratio)” value is 0.53. In addition, the “PLN (ratio)” value in assay [3] is 0.45.

Consider `CO[C@H]1C[C@@H]2CC[C@@H](C)[C@@](O)(O2)C(=O)C(=O)N2CCCC[C@H]2C(=O)O[C@H]([C@H](C)C[C@@H]2CC[C@@H](OC(=O)C[C@H](NC(=O)OCc3ccccc3)C(=O)O[C@@H]3CC[C@@H](C[C@@H](C)[C@@H]4CC(=O)[C@H](C)/C=C(\C)[C@@H](O)[C@@H](OC)C(=O)[C@H](C)C[C@H](C)/C=C/C=C/C=C(\C)[C@@H](OC)C[C@@H]5CC[C@@H](C)[C@@](O)(O5)C(=O)C(=O)N5CCCC[C@H]5C(=O)O4)C[C@H]3OC)[C@H](OC)C2)CC(=O)[C@H](C)/C=C(\C)[C@@H](O)[C@@H](OC)C(=O)[C@H](C)C[C@H](C)/C=C/C=C/C=C/1C` [Example 2, Rapamycin 42-42'-diester with N-[(phenylmethoxycarbonyl)]-L-aspartic acid], for which the “Skin Graft (mean graft survival time)” value in assay [1] is recorded as 10.7 ± 0.2 days ± SD. Also, the “LAF (ratio)” value in assay [2] is given as 0.32. Besides, in assay [3], the “PLN (ratio)” value is on record as 0.45.

One may read the IC50 as the concentration needed to halve the response being measured. `CO[C@H]1C[C@@H]2CC[C@@H](C)[C@@](O)(O2)C(=O)C(=O)N2CCCC[C@H]2C(=O)O[C@H]([C@H](C)C[C@@H]2CC[C@@H](O)[C@H](OC)C2)CC(=O)[C@H](C)/C=C(\C)[C@@H](O)[C@@H](OC)C(=O)[C@H](C)C[C@H](C)/C=C/C=C/C=C/1C` [Rapamycin, rapamycin]: the antifungal activity result in assay [4] is “antifungal activity, particularly against Candida albicans, both in vitro and in vivo”. In addition, the “Skin Graft (mean graft survival time)” value in assay [1] is on record as 12.0 ± 1.7 days ± SD. Besides, the IC50 in assay [2] (Mus musculus, Thymocyte, read-out: LAF IC50) was found to be 8.7 nM. In addition, the “Percent suppression in PLN” value in assay [3] (6 mg/kg, p.o., vs non-drug treated allogenic control) is 86%. For the same compound, the “effect in experimental allergic encephalomyelitis model” value in assay [5] is listed as “effective”. In assay [6], the “survival time of organ grafts” value is listed as “prolong survival time of organ grafts”. Besides, the “inhibition of the formation of IgE-like antibodies” value in assay [7] is recorded as “effectively inhibited the formation of IgE-like antibodies”.
